Reference: patent US20240109881A1, “Heteroaryl Compounds as Ligand Directed Degraders of IRAK4” (Bristol-Myers Squibb Company, priority 2022, published 2024)

Molecular target: T1, IRAK4 (Homo sapiens, UniProt Q9NWZ3)
T1 construct: endogenous in cells; host or cells: THP-1 cells
T1 sequence (Q9NWZ3 1-460): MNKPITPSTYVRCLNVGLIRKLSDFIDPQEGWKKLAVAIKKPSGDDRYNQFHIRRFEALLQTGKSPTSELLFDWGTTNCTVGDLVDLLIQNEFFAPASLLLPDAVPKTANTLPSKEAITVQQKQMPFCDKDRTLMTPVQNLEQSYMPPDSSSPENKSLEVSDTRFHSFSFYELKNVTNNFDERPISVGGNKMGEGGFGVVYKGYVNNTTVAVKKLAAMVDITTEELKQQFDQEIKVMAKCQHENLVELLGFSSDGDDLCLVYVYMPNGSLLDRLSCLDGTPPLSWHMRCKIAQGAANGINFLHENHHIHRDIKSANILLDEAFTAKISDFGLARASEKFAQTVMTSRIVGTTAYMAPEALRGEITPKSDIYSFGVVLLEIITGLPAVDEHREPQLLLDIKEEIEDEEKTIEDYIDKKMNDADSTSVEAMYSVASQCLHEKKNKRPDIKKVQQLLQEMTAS
Assay: LVL THP1 HTRF (THP1 Homogeneous Time Resolved Fluorescence)
Assay type: cell-based
Settings: THP1 cells, 18 h incubation with compound; for DC50: read-out: LVL THP1 HTRF EC50
Procedure: Cell culture media was prepared in a tissue culture hood in a sterile environment by adding 10% FBS and 1% Penicillin Streptomycin to 500 mL no phenol red RPMI 1640 media. The media was filtered through a Nalgene Bottle Top Filter and stored at 4° C.
For Homogenous Time Resolved Fluorescence (HTRF) assays, a Cisbio HTRF kit was used, which included: Lysis Buffer #1 4×, Blocking Reagent #3 100×, 20× Antibody 1 (Anti-IRAK4 d2), 20× Antibody 2 (Anti-IRAK4 k), and Detection Buffer.
The THP1 plates were prepared by the following method. For each dosing plate, a duplicate for CTG assay was prepared. Two THP-1 T-175 flasks could be used to plate one 384 well plate. The cells were collected from two T-175 flasks into 200 mL centrifuge tubes and spun down at 1200 rpm for 10 min. The supernatant was removed completely and cells were resuspended in 7.5 mL cell culture media. To 5 μL of the cell suspension was added 25 μL of media and 30 μL of Trypan Blue stain. The cells were counted using countess (automated cell counter, Thermo Fisher Scientific) twice and the viability and live cell count was recorded. The actual cell count was […] the live cell count. Based on the count, a cell suspension was prepared in colorless RPMI media for a final concentration of 7.5e6 cells/mL. Using Standard cassette multidrop combi, 20 μL of the 7.5e6 cells/mL cell stock was added to entire 384 well plate but for top half of column 1 (negative control) The multidrop combi was always primed to achieve a steady flow and washed after use with 20 mL de-ionized water followed by 20 mL alcohol. The cells were incubated in 5% CO2 incubator at 37° C.
Dosing was conducted using the following method. To dose assay plates and CTG plate was added 20 nL of compounds in DMSO using Echo (Beckman Coulter), and the plates were incubated at 37° C. for 18 h. The compound plates were spun at 1200 rpm for 1 min before dosing. The compound plate was sealed and properly stored during incubation.
After dosing, an HTRF assay was conducted using the following method. The treatment plates (IRAK4_HTRF) were centrifuged at 600 g for 10 min. Using CyBio Felix, Automated liquid handler (Analytikjena), 13 μL cell culture media was removed. To all columns, 7.5 μL lysis buffer was added, and an additional 7.5 μL of lysis buffer was added to column 1(top half, negative control). The plate was incubated on a shaker at room temperature for 2 h. The plate was spun down at 600 g for 5 min. Custom 20×IRAK4 Antibody obtained from CISBIO Anti-IRAK4-d2 (acceptor Ab) and Anti-IRAK4-K (donor Ab) were diluted to 1× antibody mix Using a multichannel repeater, 4 μL of 1× antibody mix was added to each wellThe plate was spun down at 600 g for 5 min and incubated in the dark at room temperature for 18 h The next day (after 18 hrs), HTRF assay plate was spun down at 600 g for 5 min and read at 665/615 nm using a Envision plate reader.

| SMILES | LVL THP1 HTRF YMIN [%] | DC50 [µM] |
| --- | --- | --- |
| C[C@H](C#N)Nc1cc(-n2ncc3cc(C#N)cnc32)ncc1-n1cc([C@H]2CC[C@H](CCN3CCN(c4ccc(C5(C)CCC(=O)NC5=O)cc4)CC3)CC2)nn1 (single isomer, unassigned) [P-204] | 1.8 | 0.007 |
| C[C@H](C#N)Nc1cc(-n2ncc3cc(C#N)cnc32)ncc1-n1cc(C2CCC(CCN3CCN(c4ccc(C5CCC(=O)NC5=O)cc4)C4COCC43)CC2)nn1 (single isomer, unassigned) [P-235] | 2.6 | 0.029 |
| C[C@H](C#N)Nc1cc(-n2ncc3cc(C#N)cnc32)ncc1-n1cc(C2CCC(CCN3CCN(c4ccc(C5CCC(=O)NC5=O)cc4)C4COCC43)CC2)nn1 (single isomer, unassigned) [P-237] | 2.8 | 0.007 |
| C[C@H](C#N)Nc1cc(-n2ncc3cc(C#N)c(N)nc32)ncc1C(=O)N[C@H]1CC[C@H](CCN2CCN(c3ccc([C@@]4(C)CCC(=O)NC4=O)cn3)[C@@H](C)C2)CC1 (single isomer, unassigned) [P-249] | 1.9 | 0.0023 |
| C[C@H](C#N)Nc1cc(-n2ncc3cc(C#N)c(N)nc32)ncc1-n1cc([C@H]2CC[C@H](CCN3[C@@H](C)CN(c4ccc([C@@]5(C)CCC(=O)NC5=O)cn4)C[C@@H]3C)CC2)nn1 (single isomer, unassigned) [P-252] | 1.7 | 0.0054 |
| C[C@H](C#N)Nc1cc(-n2ncc3cc(C#N)c(N)nc32)ncc1-n1cc([C@H]2CC[C@H](CCN3[C@H](C)CN(c4ccc([C@@]5(C)CCC(=O)NC5=O)cn4)C[C@H]3C)CC2)nn1 (single isomer, unassigned) [P-253] | 9.4 | 0.0487 |
| C[C@H](C#N)Nc1cc(-n2ncc3cc(C#N)c(N)nc32)ncc1-n1cc([C@H]2CC[C@H](CCN3[C@@H](C)CN(c4ccc([C@@]5(C)CCC(=O)NC5=O)cn4)C[C@@H]3C)CC2)nn1 (single isomer, unassigned) [P-254] | 91.0 | 0.0217 |
| C[C@H](C#N)Nc1cc(-n2ncc3cc(C#N)c(N)nc32)ncc1-n1cc([C@H]2CC[C@H](CCN3[C@H](C)CN(c4ccc([C@@]5(C)CCC(=O)NC5=O)cn4)C[C@H]3C)CC2)nn1 (single isomer, unassigned) [P-255] | 90.4 | 0.0124 |
| C[C@H](C#N)Nc1cc(-n2ncc3cc(C#N)c(N)nc32)ncc1-n1cc([C@H]2CC[C@H](CCN3CCN(c4ccc([C@@]5(C)CCC(=O)NC5=O)nc4)[C@@H](C)C3)CC2)nn1 (single isomer, unassigned) [P-257] | 34.7 | 0.0928 |
| C[C@H](C#N)Nc1cc(-n2ncc3cc(C#N)c(N)nc32)ncc1-n1cc([C@H]2CC[C@H](CCN3CCN(c4ccc([C@@]5(C)CCC(=O)NC5=O)cn4)[C@@H](C)C3)CC2)nn1 (single isomer, unassigned) [P-258] | 2.0 | 0.0069 |
| C[C@H](C#N)Nc1cc(-n2ncc3cc(C#N)c(N)nc32)ncc1-n1cc([C@H]2CC[C@H](CCN3CCN(c4ccc([C@@]5(C)CCC(=O)NC5=O)cn4)[C@@H](C)C3)CC2)nn1 (single isomer, unassigned) [P-259] | 89.5 | 0.0261 |
| C[C@H](C#N)Nc1cc(-n2ncc3cc(C#N)c(N)nc32)ncc1-n1cc([C@H]2CC[C@H](CCN3CCN(c4ccc([C@@]5(C)CCC(=O)NC5=O)cn4)[C@H](C)C3)CC2)nn1 (single isomer, unassigned) [P-262] | 8.7 | 0.0171 |
| C[C@H](C#N)Nc1cc(-n2ncc3cc(C#N)c(N)nc32)ncc1-n1cc([C@H]2CC[C@H](CCN3CCN(c4cnc([C@@]5(C)CCC(=O)NC5=O)nc4)CC3)CC2)nn1 (single isomer, unassigned) [P-263] | 9.0 | 0.0257 |
| C[C@H](C#N)Nc1cc(-n2ncc3cc(C#N)c(N)nc32)ncc1-n1cc([C@H]2CC[C@H](CCN3CCN(c4cnc([C@@]5(C)CCC(=O)NC5=O)nc4)CC3)CC2)nn1 (single isomer, unassigned) [P-264] | 94.6 | 0.0072 |
| C[C@H](C#N)Nc1cc(-n2ncc3cc(C#N)c(N)nc32)ncc1-n1cc([C@H]2CC[C@H](CCN3CCN(c4ccc([C@@]5(C)CCC(=O)NC5=O)cn4)CC3)CC2)nn1 (single isomer, unassigned) [P-265] | 93.2 | 1 |
| C[C@H](C#N)Nc1cc(-n2ncc3cc(C#N)c(N)nc32)ncc1-n1cc([C@H]2CC[C@H](CCN3CCN(c4cnc([C@@]5(C)CCC(=O)NC5=O)cn4)CC3)CC2)nn1 (single isomer, unassigned) [P-267] | 54.7 | 0.0947 |
| C[C@H](C#N)Nc1cc(-n2ncc3cc(C#N)c(N)nc32)ncc1-n1cc([C@H]2CC[C@H](CCN3CCN(c4cnc([C@@]5(C)CCC(=O)NC5=O)cn4)CC3)CC2)nn1 (single isomer, unassigned) [P-268] | −0.2 | 0.0021 |
| C[C@H](C#N)Nc1cc(-n2ncc3cc(C#N)cnc32)ncc1C(=O)N[C@H]1CC[C@H](CCN2CCN(c3ccc([C@@]4(C)CCC(=O)NC4=O)cn3)[C@@H](C)C2)CC1 (single isomer, unassigned) [P-276] | 6.0 | 0.0114 |
| C[C@H](C#N)Nc1cc(-n2ncc3cc(C#N)cnc32)ncc1-n1cc([C@H]2CC[C@](O)(CCN3CCN(c4ccc([C@@]5(C)CCC(=O)NC5=O)nc4)CC3)CC2)nn1 (single isomer, unassigned) [P-280] | 47.7 | 0.107 |
| C[C@H](C#N)Nc1cc(-n2ncc3cc(C#N)cnc32)ncc1-n1cc([C@H]2CC[C@H](CCN3C[C@@H]4CN(c5ccc([C@@]6(C)CCC(=O)NC6=O)cc5)C[C@@H]4C3)CC2)nn1 (single isomer, unassigned) [P-281] | 24.0 | 0.106 |
| C[C@H](C#N)Nc1cc(-n2ncc3cc(C#N)cnc32)ncc1-n1cc([C@H]2CC[C@H](CCN3CC[C@H](c4ccc([C@@]5(C)CCC(=O)NC5=O)cc4)C[C@H]3C)CC2)nn1 (single isomer, unassigned) [P-282] | 1.0 | 0.0034 |
| C[C@H](C#N)Nc1cc(-n2ncc3cc(C#N)cnc32)ncc1-n1cc([C@H]2CC[C@H](CCN3CC[C@@H](c4ccc([C@@]5(C)CCC(=O)NC5=O)cc4)C[C@@H]3C)CC2)nn1 (single isomer, unassigned) [P-283] | 5.2 | 0.0057 |
| C[C@H](C#N)Nc1cc(-n2ncc3cc(C#N)cnc32)ncc1-n1cc([C@H]2CC[C@H](CCN3CC[C@H]4[C@@H]3CCN4c3ccc([C@@]4(C)CCC(=O)NC4=O)nc3)CC2)nn1 (single isomer, unassigned) [P-286] | 6.6 | 0.0085 |
| C[C@H](C#N)Nc1cc(-n2ncc3cc(C#N)cnc32)ncc1-n1cc([C@H]2CC[C@H](CCN3CC[C@H]4[C@@H]3CCN4c3ccc([C@@]4(C)CCC(=O)NC4=O)nc3)CC2)nn1 (single isomer, unassigned) [P-287] | 51.0 | 1.35 |
| C[C@H](C#N)Nc1cc(-n2ncc3cc(C#N)cnc32)ncc1-n1cc([C@H]2CC[C@H](CCN3CC[C@H]4[C@@H]3CCN4c3ccc([C@@]4(C)CCC(=O)NC4=O)nc3)CC2)nn1 (single isomer, unassigned) [P-288] | 4.7 | 0.0071 |
